Assay results from patent publication US11230575B2, “Insoluble fusion protein comprising antimicrobial peptide and method for producing antimicrobial peptide using same” (Konkuk University Industrial Cooperation Corp., priority 2016, dated 2022).

How the values were obtained:
Assay in all cases: spot-on-lawn antimicrobial activity test
Type in all cases: cell-based
[1] = system: Escherichia coli ATCC 25922
Protocol: (§1) In order to evaluate the antimicrobial activity of the purified antimicrobial peptides PG1 and PMAP36 according to the embodiment of the present invention, a spot-on-lawn test was carried out using E. coli ATCC 25922, Pseudomonas aeruginosa ATCC 27853, and Staphylococcus aureus ATCC 29213.

[2] = system: Pseudomonas aeruginosa ATCC 27853
Protocol: as §1

[3] = system: Staphylococcus aureus ATCC 29213
Protocol: as §1

Protegrin 1 (RGGRLCYCRRRFCVCVGRG) [PG1, recombinantly produced antimicrobial peptide with anti-parallel beta-hairpin structure stabilized by two disulfide bonds, first discovered in pig leucocytes]
Antimicrobial activity assay for the recombinant AMP produced [1]: 7 µg/mL | Antimicrobial activity assay for the recombinant AMP produced [2]: 15 µg/mL | Antimicrobial activity assay for the recombinant AMP produced [3]: 10 µg/mL

pig myeloid antibacterial peptide36 (GRFRRLRKKTRKRLKKIGKVLKWIPPIVGSIPLGCG; listed as Sus scrofa) [PMAP36, recombinantly produced antimicrobial peptide having a helix structure]
Antimicrobial activity assay for the recombinant AMP produced [1]: 10 µg/mL | Antimicrobial activity assay for the recombinant AMP produced [2]: 11 µg/mL | Antimicrobial activity assay for the recombinant AMP produced [3]: 9 µg/mL
